21 compounds from patent US20260062422A1 (Halda Therapeutics OpCo, Inc., priority 2022, published 2026) can be followed below.

The subject of assay [1] is T-Rex 293 cell line SC3 cells lacking increased expression of androgen receptor protein. Nature of the assay: Cellular growth inhibition, T-Rex 293 SC3 cells without doxycycline, CellTiter-Glo. Type of assay: cell-based. The note with it: 72 h, T-Rex 293 SC3 cells not exposed to doxycycline, CellTiter-Glo 2.0. How it is done: (§1) The following types of cells were prepared for this experiment: (i) a T-Rex 293 cell line having increased expression of androgen receptor protein due to exposure to doxycycline and (ii) a T-Rex 293 cell line lacking increased expression of androgen receptor protein. Ability of the test compounds to inhibit proliferation of the foregoing cell types was evaluated according to the procedures set forth below.
(§2) The doxycycline-inducible androgen receptor protein expressing cell line was established using the following protocol: T-Rex 293 cells were purchased from Invitrogen (Cat #R71007) and transfected using Lipofectamine 2000 with the wild-type androgen receptor protein sequence cloned into the pcDNA4/TO vector. Transfected cells were selected using 400 μg/mL Zeocin (Invitrogen Cat #R25001). Following selection, single clones were raised and maintained in Dulbecco's Modified Eagle Medium (DMEM) supplemented with 10% w/w Tetracycline-free fetal bovine serum (FBS) and 250 μg/mL Zeocin. Clones were analyzed for expression of androgen receptor protein in the presence and absence of 10 ng/mL doxycycline (Sigma Cat #D9891), and a single doxycycline-inducible clone (hereinafter “SC3”) was selected for use in downstream assays.
(§3) The SC3 cells were seeded on poly-D-lysine coated, black clear-bottom 384-well plates at 2500/well, in 25 μL Phenol Red Free Dulbecco's Modified Eagle Medium (DMEM) supplemented with 10% w/w charcoal-dextran treated fetal bovine serum (FBS) and 1% w/w pen-strep, with or without 10 ng/mL doxycycline. Pen-Strep is a commercially available mixture of penicillin G and streptomycin, which is used in mammalian cell culture media to prevent bacterial contamination. Phenol Red Free Dulbecco's Modified Eagle Medium (DMEM) supplemented with 10% w/w charcoal-dextran treated fetal bovine serum (FBS) and 1% w/w pen-strep, with or without 10 ng/mL doxycycline is herein referred to as Treatment Medium. Following seeding of cells in the plates, the plates were spun at 300×g for 30 seconds, then equilibrated to room temperature for 30 minutes, and then deposited in a humidified tissue culture incubator maintained at 37° C. with 5% CO2.
(§4) At 24 hours after seeding of the cells, dilutions of test compound were prepared in DMSO and dissolved in Treatment Medium, to achieve a final DMSO concentration of 0.5% w/w, thereby providing the Test Compound Solution. A 25 μL aliquot of the Test Compound Solution was added to cells in the well plates. An equal volume of a solution containing DMSO and Treatment Medium was used as a negative control. Following treatment of cells with Test Compound Solution or said equal volume of a solution containing DMSO and Treatment Medium, the plates were spun at 300×g for 30 seconds, and then left in an incubator for 72 hours. At the end of the treatment duration, cell viability was quantified with CellTiter-Glo 2.0 reagent (Promega Cat #G9243). For this purpose, plates were equilibrated to room temperature for 30 minutes, and then 25 μL of CellTiter-Glo 2.0 reagent was added to cells in the plate wells. Plates were then agitated on a shaker for two minutes at 500 rpm and subsequently incubated at room temperature for 10 minutes. Following incubation, the plates were spun at 3000×g for 30 seconds, then sealed with an optical adhesive cover, and luminescence readings were measured with an EnVision Plate Reader. Data was normalized using zero luminescence for baseline. A four-parameter non-linear regression curve fit was applied to dose-response data in GraphPad Prism data analysis software to determine the half-maximal growth inhibitory concentration (GI50) for each test compound.
For orientation: In ATP-based viability assays light output follows the ATP content of the culture.

For assay [2], the system named is T-Rex 293 cell line SC3 cells having increased expression of androgen receptor protein due to exposure to doxycycline. In words: Cellular growth inhibition, T-Rex 293 SC3 cells with doxycycline (androgen receptor induced), CellTiter-Glo. Conditions: 72 h, T-Rex 293 SC3 cells with 10 ng/mL doxycycline (increased androgen receptor expression). Format: cell-based. How it is done:
as §1, §2, §3, §4

A further assay deals with VCaP cells. Nature of the assay: Cellular growth inhibition assay for VCaP cells, CellTiter-Glo. Type of assay: cell-based, human. The note with it: Homo sapiens, VCaP, 72 h, 72 hours treatment, CellTiter-Glo 2.0. Put shortly: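 GI50 values come from four-parameter curve fits of luminescence data normalized to a zero baseline. Compound, in medium with 0.5% DMSO, was added one day after plating and left for 72 h before CellTiter-Glo 2.0 addition.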

Another assay has as its system T47D cells. In words: Cellular growth inhibition assay for T47D cells, CellTiter-Glo. Type of assay: cell-based, human. The note with it: Homo sapiens, T47D, 72 h, 72 hours treatment, CellTiter-Glo 2.0 cell viability. Put shortly:
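Luminescence from CellTiter-Glo 2.0 after 72 h of compound exposure gives the viability signal. Cells grew in insulin-supplemented (0.2 units/mL) DMEM with 10% FBS and were treated one day after seeding at 0.5% DMSO. GI50 values come from four-parameter nonlinear regression.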

The term GI50 denotes the concentration that inhibits growth by half. Regarding `Cc1sc2c(c1C)C(c1ccc(Cl)cc1)=N[C@@H](CC(=O)NCCCOC1CCN(c3ncc(C(=O)N[C@H]4C(C)(C)[C@H](Oc5ccc(C#N)c(Cl)c5)C4(C)C)cn3)CC1)c1nnc(C)n1-2` [Compound I-20], the 50% growth inhibitory concentration (GI50) was 500 to 1500 nM in assay [1], less than 500 nM in assay [2], 500 to 1500 nM in the assay with VCaP cells and 500 to 1500 nM in the assay with T47D cells.

For the compound `CCNC(=O)C[C@@H]1N=C(c2ccc(OCCCOC3CCN(c4ncc(C(=O)N[C@H]5C(C)(C)[C@H](Oc6ccc(C#N)c(Cl)c6)C5(C)C)cn4)CC3)cc2)c2c(sc(C)c2C)-n2c(C)nnc21` [Compound I-62], the GI50 (in assay [1]; in assay [2]; with VCaP cells) was less than 500 nM in each case.

For `CCNC(=O)C[C@@H]1N=C(c2ccc(OCCCCCCOC3CCN(c4ncc(C(=O)N[C@H]5C(C)(C)[C@H](Oc6ccc(C#N)c(Cl)c6)C5(C)C)cn4)CC3)cc2)c2c(sc(C)c2C)-n2c(C)nnc21` [Compound I-63], the GI50 is 500 to 1500 nM in assay [1], less than 500 nM in assay [2] and 1500 to 3000 nM in the assay on VCaP cells.

With `CCNC(=O)C[C@@H]1N=C(c2ccc(OCCCCOC3CCN(c4ncc(C(=O)NC5C(C)(C)C(Oc6ccc(C#N)c(Cl)c6)C5(C)C)cn4)CC3)cc2)c2c(sc(C)c2C)-n2c(C)nnc21` (stereo partly shown) [Compound I-64], the GI50 (in assay [1]; in assay [2]; with VCaP cells) was less than 500 nM throughout.

For `CCNC(=O)C[C@@H]1N=C(c2ccc(OCCOCCOC3CCN(c4ncc(C(=O)N[C@H]5C(C)(C)[C@H](Oc6ccc(C#N)c(Cl)c6)C5(C)C)cn4)CC3)c(F)c2F)c2c(sc(C)c2C)-n2c(C)nnc21` [Compound I-74], the GI50 in assay [1] was 500 to 1500 nM; in assay [2], less than 500 nM; in the assay with VCaP cells, less than 500 nM.

Take `CCNC(=O)C[C@@H]1N=C(c2ccc(OCCOCCOC3CCN(c4ncc(C(=O)N[C@H]5C(C)(C)[C@H](Oc6ccc(C#N)c(Cl)c6)C5(C)C)cn4)CC3)cc2F)c2c(sc(C)c2C)-n2c(C)nnc21` [Compound I-77]: the results for the GI50 (in assay [1]; in assay [2]; in the assay with VCaP cells) were 500 to 1500 nM, less than 500 nM and 500 to 1500 nM, respectively.

Regarding `CCNC(=O)C[C@@H]1N=C(c2ccc(OCCOCCOC3CCN(c4ncc(C(=O)N[C@H]5C(C)(C)[C@H](Oc6ccc(C#N)c(Cl)c6)C5(C)C)cn4)CC3)c(F)c2)c2c(sc(C)c2C)-n2c(C)nnc21` [Compound I-78], the GI50 was 1500 to 3000 nM in assay [1], less than 500 nM in assay [2] and 1500 to 3000 nM in the assay with VCaP cells.

`CCNC(=O)C[C@@H]1N=C(c2ccc(CCCCCOC3CCN(c4ncc(C(=O)N[C@H]5C(C)(C)[C@H](Oc6ccc(C#N)c(Cl)c6)C5(C)C)cn4)CC3)cc2)c2c(sc(C)c2C)-n2c(C)nnc21` [Compound I-89]: the values for the GI50 (in assay [1]; in assay [2]; in the assay on VCaP cells) were 500 to 1500 nM, less than 500 nM and 1500 to 3000 nM, respectively.

For the compound `CCNC(=O)C[C@@H]1N=C(c2ccc(CCCCCCOC3CCN(c4ncc(C(=O)N[C@H]5C(C)(C)[C@H](Oc6ccc(C#N)c(Cl)c6)C5(C)C)cn4)CC3)cc2)c2c(sc(C)c2C)-n2c(C)nnc21` [Compound I-90], the GI50 is more than 3000 nM in assay [1], less than 500 nM in assay [2] and more than 3000 nM in the assay on VCaP cells.

On to `CCNC(=O)C[C@@H]1N=C(c2ccc(CCCCOC3CCN(c4ncc(C(=O)N[C@H]5C(C)(C)[C@H](Oc6ccc(C#N)c(Cl)c6)C5(C)C)cn4)CC3)cc2)c2c(sc(C)c2C)-n2c(C)nnc21` [Compound I-91], for which the GI50 in assay [1] was 500 to 1500 nM; in assay [2] it was less than 500 nM; in the assay on VCaP cells, 500 to 1500 nM.

Regarding `CCNC(=O)C[C@@H]1N=C(c2ccc(CCCCCCCOC3CCN(c4ncc(C(=O)N[C@H]5C(C)(C)[C@H](Oc6ccc(C#N)c(Cl)c6)C5(C)C)cn4)CC3)cc2)c2c(sc(C)c2C)-n2c(C)nnc21` [Compound I-92], the concentration for 50% growth inhibition (GI50) in assay [1] was more than 3000 nM; in assay [2], less than 500 nM; with VCaP cells, less than 500 nM.

Consider `Cc1sc2c(c1C)C(c1ccc(CC3CC(C4CCCN(c5ncc(C(=O)N[C@H]6C(C)(C)[C@H](Oc7ccc(C#N)c(Cl)c7)C6(C)C)cn5)C4)C3)cc1)=N[C@@H](C)c1nnc(C)n1-2` (stereo partly shown) [Compound I-463], for which the values for the GI50 (in assay [1]; in assay [2]; in the assay with VCaP cells) were more than 3000 nM, less than 500 nM and less than 500 nM, respectively.

`Cc1sc2c(c1C)C(c1ccc(-n3cc(C4CCN(c5ncc(C(=O)N[C@H]6C(C)(C)[C@H](Oc7ccc(C#N)c(Cl)c7)C6(C)C)cn5)CC4)nn3)cc1)=N[C@@H](Cc1ncco1)c1nnc(C)n1-2` [Compound I-481]: the GI50 in assay [1] is 500 to 1500 nM; in assay [2], less than 500 nM; with VCaP cells it was less than 500 nM.

`Cc1sc2c(c1C)C(c1ccc(-c3cc(C4CCN(c5ncc(C(=O)N[C@H]6C(C)(C)[C@H](Oc7ccc(C#N)c(Cl)c7)C6(C)C)cn5)CC4)no3)cc1)=NC(Cc1ncco1)c1nnc(C)n1-2` (stereo partly shown) [Compound I-482]: the GI50 (in assay [1]; in assay [2]; with VCaP cells) was less than 500 nM throughout.

Turning to `Cc1sc2c(c1C)C(c1ccc(-c3cn(C4CCN(c5ncc(C(=O)N[C@H]6C(C)(C)[C@H](Oc7ccc(C#N)c(Cl)c7)C6(C)C)cn5)CC4)nn3)cc1)=NC(Cc1ncco1)c1nnc(C)n1-2` (stereo partly shown) [Compound I-483], the GI50 (in assay [1]; in assay [2]; in the assay with VCaP cells) was less than 500 nM each time.

For the compound `Cc1sc2c(c1C)C(c1ccc(-c3cn(C4CCN(c5ncc(C(=O)N[C@H]6C(C)(C)[C@H](Oc7ccc(C#N)c(Cl)c7)C6(C)C)cn5)CC4)cn3)cc1)=N[C@@H](Cc1ncco1)c1nnc(C)n1-2` [Compound I-484], the GI50 is 500 to 1500 nM in assay [1], less than 500 nM in assay [2] and 500 to 1500 nM in the assay on VCaP cells.

As to `Cc1sc2c(c1C)C(c1ccc(N3CCCN(CCCNc4ncc(C(=O)N[C@H]5C(C)(C)[C@H](Oc6ccc(C#N)c(Cl)c6)C5(C)C)cn4)CC3)cc1)=N[C@@H](Cc1ncco1)c1nnc(C)n1-2` [Compound I-666], the 50% growth inhibitory concentration (GI50) in assay [1] is 1500 to 3000 nM; in assay [2], less than 500 nM; in the assay on VCaP cells it was less than 500 nM.

Take `Cc1sc2c(c1C)C(c1ccc(N3CCC(C)(CNc4ncc(C(=O)N[C@H]5C(C)(C)[C@H](Oc6ccc(C#N)c(Cl)c6)C5(C)C)cn4)CC3)cc1)=NC(Cc1ncco1)c1nnc(C)n1-2` (stereo partly shown) [Compound I-667]: the GI50 (in assay [1]; in assay [2]; in the assay on VCaP cells) was less than 500 nM each time.

`Cc1sc2c(c1C)C(c1ccc(N3CCC4(CC3)CC(Nc3ncc(C(=O)N[C@H]5C(C)(C)[C@H](Oc6ccc(C#N)c(Cl)c6)C5(C)C)cn3)C4)cc1)=N[C@@H](Cc1ncco1)c1nnc(C)n1-2` [Compound I-668]: the GI50 (in assay [1]; in assay [2]; with VCaP cells) was less than 500 nM throughout.

Regarding `Cc1sc2c(c1C)C(c1ccc(N3CCO[C@@H](CNc4ncc(C(=O)N[C@H]5C(C)(C)[C@H](Oc6ccc(C#N)c(Cl)c6)C5(C)C)cn4)C3)cc1)=NC(Cc1ncco1)c1nnc(C)n1-2` (stereo partly shown) [Compound I-669], the GI50 (in assay [1]; in assay [2]; with VCaP cells) was less than 500 nM in each case.

For the compound `Cc1sc2c(c1C)C(c1ccc(N3CCN(c4ncc(C(=O)N[C@H]5C(C)(C)[C@H](Oc6ccc(C#N)c(Cl)c6)C5(C)C)cn4)CC(F)(F)C3)cc1)=NC(Cc1ncco1)c1nnc(C)n1-2` (stereo partly shown) [Compound I-670], the results for the GI50 (in assay [1]; in assay [2]; in the assay on VCaP cells) were more than 3000 nM, less than 500 nM and less than 500 nM, respectively.
